Laboratory results published in US11071768B2, “Caspofungin compositions for inhalation” (TRILOGY THERAPEUTICS, INC., priority 2018, dated 2021).
≈ marks a conversion by molar mass, not a printed value. Where two headings read alike, the source gives them in different places.

Experiments:
[1] = test system: Candida tropicalis; conditions: 625 isolates; cited from earlier work
[2] = test system: Candida parapsilosis; conditions: 759 isolates; cited from earlier work
[3] = test system: Aspergillus fumigatus; conditions: cited from earlier work
[4] = test system: Aspergillus niger; conditions: cited from earlier work
[5] = test system: Aspergillus versicolor; conditions: 75 isolates; cited from earlier work
[6] = test system: Aspergillus terrus; conditions: cited from earlier work
[7] = 2 mg/kg, cited from earlier work
[8] = test system: Aspergillus nidulans; conditions: cited from earlier work
[9] = test system: Candida glabrata; conditions: 747 isolates; cited from earlier work
[10] = test system: Candida krusei; conditions: 136 isolates; cited from earlier work
[11] = test system: Candida guilliermondii; conditions: 61 isolates; cited from earlier work
[12] = test system: Candida albicans; conditions: 2869 isolates; cited from earlier work
[13] = Toxicology observations in the rat pharmacokinetic study; type: in vivo; conditions: male rats, nose-only inhalation or intravenous injection
Protocol: A detailed, hand-held physical examination was conducted on all animals once during the quarantine period (prior to randomization). During the treatment period, the animals were observed daily for mortality or evidence of moribundity; these checks were separated by a minimum of four hours. Daily cage-side clinical observations were conducted during exposure, and daily hand-held clinical observations were conducted before and after exposure. Observations included, but were not limited to the following: changes in the skin and fur, eyes, and mucous membranes; effects on the respiratory, circulatory, autonomic and central nervous systems; and effects on somatomotor activity and behavior pattern.
Body Weights and Body Weight Changes: Body weights were determined one day after animal receipt; at randomization; and prior to exposure on Study Day 1, 2, 3 and 7 (as applicable based on scheduled euthanization).
Plasma and Tissue Samples/Necropsy: Whole blood samples were collected from three animals per time-point at approximately 0.5, 1, 2, 4, 8, 12, 24 and 48 hours and 7 days after dose administration for plasma drug level determination. Rats were anesthetized with 70% CO2/30% air and blood was collected from the retro-orbital plexus and placed into tubes containing anticoagulant (EDTA). Blood samples were placed on ice immediately following collection and processed (i.e., centrifuged) to plasma. The samples were then stored frozen (at approximately −70° C.) until analyzed. All study animals surviving to scheduled necropsy were euthanized by an overdose of an intraperitoneal injection of sodium pentobarbital at […]. Tissue specimens (lung, liver and kidney) were collected from three animals per time point at 0.5, 2, 24 and 48 hours and 7 days after dose administration. All tissue specimens were stored frozen at approximately −70° C. until analyzed.

[14] = test system: Aspergillus flavus; conditions: cited from earlier work
[15] = test system: All Candida spp.; conditions: All Candida spp., 5,346 isolates; cited from earlier work

For `CC[C@H](C)C[C@H](C)CCCCCCCCC(=O)N[C@H]1C[C@@H](O)[C@@H](NCCN)NC(=O)[C@@H]2[C@@H](O)CCN2C(=O)[C@H]([C@H](O)CCN)NC(=O)[C@H]([C@H](O)[C@@H](O)c2ccc(O)cc2)NC(=O)[C@@H]2C[C@@H](O)CN2C(=O)[C@H]([C@@H](C)O)NC1=O` [caspofungin], the MIC90 [1] is listed as 0.06 µg/mL (≈ 0.0549 µM), the MIC90 [2] is listed as 1 µg/mL (≈ 0.915 µM) and the “MIC90 Average (Geometric Mean MIC)” value ([3]; 56 isolates) is listed as 0.25 µg/mL (≈ 0.229 µM). For the same compound, the “MIC90 Range” value ([3]; 56 isolates) was 0.12 to 4 µg/mL, the “MEC Average (Mode)” value ([3]; 1691 isolates) was 0.25 µg/mL and the “MEC Range” value ([3]; 1691 isolates) was 0.016 to 32 µg/mL. The “MIC90 Average (Geometric Mean MIC)” value ([4]; 10 isolates) was 0.14 µg/mL (≈ 0.128 µM), the “MIC90 Range” value ([4]; 10 isolates) was 0.06 to 0.5 µg/mL and the “MEC Average (Mode)” value ([4]; 440 isolates) was 0.06 µg/mL. The “MEC Range” value ([4]; 440 isolates) was 0.016 to 2 µg/mL, the “MEC Average (Mode)” value [5] was 0.12 µg/mL and the “MEC Range” value [5] was 0.032 to 2 µg/mL. For the same compound, the “MIC90 Average (Geometric Mean MIC)” value ([6]; 11 isolates) was 0.12 µg/mL (≈ 0.11 µM), the “MIC90 Range” value ([6]; 11 isolates) was 0.06 to .2 µg/mL and the “MEC Average (Mode)” value ([6]; 385 isolates) was 0.06 µg/mL. For the same compound, the “MEC Range” value ([6]; 385 isolates) was 0.016 to 2 µg/mL, the “Kidney concentration, radiolabeled compound (Stone 2004)” value (from here on “Kidney concentration”) ([7]; 0.5 h) was 9.15 µg/g and the “Kidney concentration” value ([7]; 2 h) was 10.60 µg/g. For the same compound, the “Kidney concentration” value ([7]; 24 h) was 11.40 µg/g, the “MIC90 Average (Geometric Mean MIC)” value ([8]; 13 isolates) was 0.44 µg/mL (≈ 0.402 µM) and the “MIC90 Range” value ([8]; 13 isolates) was 0.2 to 4 µg/mL. For the same compound, the “MEC Average (Mode)” value ([8]; 192 isolates) was 0.12 µg/mL, the “MEC Range” value ([8]; 192 isolates) was 0.032 to 16 µg/mL and the MIC90 [9] was 0.06 µg/mL (≈ 0.0549 µM). For the same compound, the MIC90 [10] was 0.25 µg/mL (≈ 0.229 µM), the MIC90 [11] was 1 µg/mL (≈ 0.915 µM) and the MIC90 [12] was 0.06 µg/mL (≈ 0.0549 µM). For the same compound, the “Clinical signs of toxicity” value [13] was “no clinical signs of toxicity”, the “Effects on body weight” value [13] was “no effects on body weight” and the Gross necropsy findings [13] was “no gross necropsy findings”. The Mortality [13] was “no test-article related mortality”, the “MIC90 Average (Geometric Mean MIC)” value ([14]; 13 isolates) was 0.2 µg/mL (≈ 0.183 µM) and the “MIC90 Range” value ([14]; 13 isolates) was 0.06 to 2 µg/mL. The “MEC Average (Mode)” value ([14]; 432 isolates) was 0.06 µg/mL, the “MEC Range” value ([14]; 432 isolates) was 0.016 to 32 µg/mL and the MIC90 [15] was 0.25 µg/mL (≈ 0.229 µM).
